Source: paper PMC6199744, “Development of Chemical Proteomics for the Folateome and Analysis of the Kinetoplastid Folateome” (ACS Infectious Diseases, 2018)
Where two headings read alike, the source gives them in different places.

Assays:
Type in all cases: binding
[1] = target: T1, HeLa cell extract proteins (Homo sapiens, UniProt P68366)
T1 construct: endogenous in cells; host or cells: HeLa cell extract

[2] = target: T2, HeLa cell extract proteins (Homo sapiens, UniProt P30050)
T2 construct: endogenous in cells; host or cells: HeLa cell extract

[3] = target: T3, HeLa cell extract proteins (Homo sapiens, UniProt P33992)
T3 construct: endogenous in cells; host or cells: HeLa cell extract
T3 sequence (P33992 1-734): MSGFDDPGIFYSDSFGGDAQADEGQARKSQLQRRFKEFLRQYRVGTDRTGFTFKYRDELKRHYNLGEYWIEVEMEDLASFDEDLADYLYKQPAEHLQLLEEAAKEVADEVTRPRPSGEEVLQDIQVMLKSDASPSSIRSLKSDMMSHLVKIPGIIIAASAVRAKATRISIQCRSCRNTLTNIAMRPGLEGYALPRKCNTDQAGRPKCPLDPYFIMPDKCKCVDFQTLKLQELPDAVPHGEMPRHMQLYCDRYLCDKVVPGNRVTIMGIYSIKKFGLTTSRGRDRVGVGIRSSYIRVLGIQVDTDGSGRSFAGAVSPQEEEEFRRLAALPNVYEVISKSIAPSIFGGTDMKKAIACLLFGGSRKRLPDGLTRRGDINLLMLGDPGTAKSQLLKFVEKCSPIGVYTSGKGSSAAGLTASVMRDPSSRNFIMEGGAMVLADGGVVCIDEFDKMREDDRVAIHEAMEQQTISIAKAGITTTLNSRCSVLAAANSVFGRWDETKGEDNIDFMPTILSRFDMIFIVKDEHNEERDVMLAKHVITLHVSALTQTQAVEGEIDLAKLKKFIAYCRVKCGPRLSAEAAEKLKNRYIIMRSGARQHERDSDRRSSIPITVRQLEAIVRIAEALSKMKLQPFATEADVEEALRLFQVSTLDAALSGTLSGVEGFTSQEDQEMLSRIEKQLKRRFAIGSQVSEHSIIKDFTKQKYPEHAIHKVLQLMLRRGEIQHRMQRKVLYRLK

[4] = target: T4, HeLa cell extract proteins (Homo sapiens, UniProt P49368)
T4 construct: endogenous in cells; host or cells: HeLa cell extract
T4 sequence (P49368 1-545): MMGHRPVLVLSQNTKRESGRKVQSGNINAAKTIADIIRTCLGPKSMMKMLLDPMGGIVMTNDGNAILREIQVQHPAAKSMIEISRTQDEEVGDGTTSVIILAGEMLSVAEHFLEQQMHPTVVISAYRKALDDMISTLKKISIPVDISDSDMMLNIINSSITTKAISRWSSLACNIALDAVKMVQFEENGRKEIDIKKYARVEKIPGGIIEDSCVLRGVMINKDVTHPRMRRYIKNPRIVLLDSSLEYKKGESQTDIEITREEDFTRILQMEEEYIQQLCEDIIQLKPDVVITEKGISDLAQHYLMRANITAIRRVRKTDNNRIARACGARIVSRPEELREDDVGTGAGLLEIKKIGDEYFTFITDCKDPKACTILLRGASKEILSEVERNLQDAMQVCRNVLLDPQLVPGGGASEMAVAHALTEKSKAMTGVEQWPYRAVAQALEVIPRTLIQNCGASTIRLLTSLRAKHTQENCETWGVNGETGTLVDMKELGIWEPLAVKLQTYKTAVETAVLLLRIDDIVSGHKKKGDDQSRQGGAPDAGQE

[5] = target: T5, HeLa cell extract proteins (Homo sapiens, UniProt P14678)
T5 construct: endogenous in cells; host or cells: HeLa cell extract

[6] = target: T6, HeLa cell extract proteins (Homo sapiens, UniProt Q93074)
T6 construct: endogenous in cells; host or cells: HeLa cell extract
T6 sequence (Q93074 whole entry): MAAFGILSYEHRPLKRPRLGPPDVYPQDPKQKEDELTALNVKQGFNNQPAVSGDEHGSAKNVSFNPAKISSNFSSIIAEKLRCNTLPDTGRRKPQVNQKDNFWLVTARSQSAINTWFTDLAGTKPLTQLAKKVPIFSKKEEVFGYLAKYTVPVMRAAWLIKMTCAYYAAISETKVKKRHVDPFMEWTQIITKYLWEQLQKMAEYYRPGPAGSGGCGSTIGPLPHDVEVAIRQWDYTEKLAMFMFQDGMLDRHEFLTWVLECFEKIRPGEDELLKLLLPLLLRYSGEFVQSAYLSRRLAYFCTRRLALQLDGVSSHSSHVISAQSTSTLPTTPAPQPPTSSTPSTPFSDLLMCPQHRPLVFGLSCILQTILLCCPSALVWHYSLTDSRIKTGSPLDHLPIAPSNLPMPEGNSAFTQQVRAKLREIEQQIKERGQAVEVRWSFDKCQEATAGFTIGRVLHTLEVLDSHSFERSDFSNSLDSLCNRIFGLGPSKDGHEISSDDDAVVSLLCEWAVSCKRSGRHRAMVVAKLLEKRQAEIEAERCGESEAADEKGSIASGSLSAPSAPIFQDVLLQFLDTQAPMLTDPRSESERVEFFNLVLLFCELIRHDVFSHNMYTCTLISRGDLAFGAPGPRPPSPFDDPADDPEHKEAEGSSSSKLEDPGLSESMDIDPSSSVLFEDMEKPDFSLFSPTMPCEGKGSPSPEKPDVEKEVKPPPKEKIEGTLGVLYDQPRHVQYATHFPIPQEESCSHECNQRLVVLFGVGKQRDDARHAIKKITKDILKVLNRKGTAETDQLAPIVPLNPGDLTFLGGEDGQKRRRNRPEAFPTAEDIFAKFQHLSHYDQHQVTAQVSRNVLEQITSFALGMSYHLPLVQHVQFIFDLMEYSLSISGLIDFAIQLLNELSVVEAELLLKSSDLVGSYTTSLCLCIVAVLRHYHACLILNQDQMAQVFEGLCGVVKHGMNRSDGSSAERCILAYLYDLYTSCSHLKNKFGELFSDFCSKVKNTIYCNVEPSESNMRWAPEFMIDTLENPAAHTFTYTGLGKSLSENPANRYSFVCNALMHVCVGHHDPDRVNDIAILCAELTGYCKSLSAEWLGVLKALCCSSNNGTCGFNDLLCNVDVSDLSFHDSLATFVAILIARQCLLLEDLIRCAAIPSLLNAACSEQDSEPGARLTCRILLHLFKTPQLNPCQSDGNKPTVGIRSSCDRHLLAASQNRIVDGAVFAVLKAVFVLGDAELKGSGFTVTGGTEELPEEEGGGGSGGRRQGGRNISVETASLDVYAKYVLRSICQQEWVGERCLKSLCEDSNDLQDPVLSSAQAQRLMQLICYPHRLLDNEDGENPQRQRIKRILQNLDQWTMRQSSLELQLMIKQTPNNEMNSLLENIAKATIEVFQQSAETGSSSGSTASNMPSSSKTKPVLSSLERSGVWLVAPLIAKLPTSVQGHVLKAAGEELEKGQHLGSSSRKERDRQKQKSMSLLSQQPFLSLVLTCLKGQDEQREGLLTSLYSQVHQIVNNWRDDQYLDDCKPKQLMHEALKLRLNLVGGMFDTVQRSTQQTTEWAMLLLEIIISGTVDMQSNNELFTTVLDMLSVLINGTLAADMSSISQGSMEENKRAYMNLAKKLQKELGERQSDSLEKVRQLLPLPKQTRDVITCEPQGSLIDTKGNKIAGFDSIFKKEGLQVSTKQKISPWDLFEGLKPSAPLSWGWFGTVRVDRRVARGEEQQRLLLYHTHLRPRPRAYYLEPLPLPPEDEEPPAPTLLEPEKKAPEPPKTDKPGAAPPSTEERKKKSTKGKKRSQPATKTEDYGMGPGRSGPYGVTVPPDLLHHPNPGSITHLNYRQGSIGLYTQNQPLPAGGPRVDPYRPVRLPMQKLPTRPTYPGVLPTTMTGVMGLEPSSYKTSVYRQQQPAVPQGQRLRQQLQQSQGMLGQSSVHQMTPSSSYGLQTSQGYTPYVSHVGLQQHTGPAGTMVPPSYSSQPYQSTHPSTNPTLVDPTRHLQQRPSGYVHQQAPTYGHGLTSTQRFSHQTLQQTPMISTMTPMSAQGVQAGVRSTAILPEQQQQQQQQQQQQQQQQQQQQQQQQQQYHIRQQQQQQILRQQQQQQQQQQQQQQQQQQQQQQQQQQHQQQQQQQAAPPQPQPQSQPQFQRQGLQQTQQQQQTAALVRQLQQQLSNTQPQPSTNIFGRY

[7] = target: T7, HeLa cell extract proteins (Homo sapiens, UniProt P26639)
T7 construct: endogenous in cells; host or cells: HeLa cell extract
T7 sequence (P26639 1-723): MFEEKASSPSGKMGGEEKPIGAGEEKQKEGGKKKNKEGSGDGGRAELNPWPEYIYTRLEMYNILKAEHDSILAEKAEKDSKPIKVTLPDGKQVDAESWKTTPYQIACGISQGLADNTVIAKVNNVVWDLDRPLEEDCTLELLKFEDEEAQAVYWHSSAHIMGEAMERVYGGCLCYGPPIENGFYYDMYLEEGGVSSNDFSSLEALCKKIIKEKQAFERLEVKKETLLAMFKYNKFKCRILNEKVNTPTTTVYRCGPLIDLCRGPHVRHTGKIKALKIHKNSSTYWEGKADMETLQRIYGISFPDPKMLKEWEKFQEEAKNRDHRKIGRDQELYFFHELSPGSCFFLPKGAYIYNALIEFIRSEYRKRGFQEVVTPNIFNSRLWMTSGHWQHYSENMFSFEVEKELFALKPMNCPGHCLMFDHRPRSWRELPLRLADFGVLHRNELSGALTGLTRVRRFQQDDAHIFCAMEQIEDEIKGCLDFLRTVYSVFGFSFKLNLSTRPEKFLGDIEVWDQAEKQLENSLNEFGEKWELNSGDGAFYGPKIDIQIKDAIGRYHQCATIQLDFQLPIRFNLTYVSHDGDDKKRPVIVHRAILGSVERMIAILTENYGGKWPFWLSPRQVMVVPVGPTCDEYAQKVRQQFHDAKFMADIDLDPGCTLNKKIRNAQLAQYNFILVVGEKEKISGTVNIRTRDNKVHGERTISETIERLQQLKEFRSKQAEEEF

[8] = target: T8, HeLa cell extract proteins (Homo sapiens, UniProt P51398)
T8 construct: endogenous in cells; host or cells: HeLa cell extract

[9] = target: T9, HeLa cell extract proteins (Homo sapiens, UniProt Q9BXR0)
T9 construct: endogenous in cells; host or cells: HeLa cell extract
T9 sequence (Q9BXR0 1-403): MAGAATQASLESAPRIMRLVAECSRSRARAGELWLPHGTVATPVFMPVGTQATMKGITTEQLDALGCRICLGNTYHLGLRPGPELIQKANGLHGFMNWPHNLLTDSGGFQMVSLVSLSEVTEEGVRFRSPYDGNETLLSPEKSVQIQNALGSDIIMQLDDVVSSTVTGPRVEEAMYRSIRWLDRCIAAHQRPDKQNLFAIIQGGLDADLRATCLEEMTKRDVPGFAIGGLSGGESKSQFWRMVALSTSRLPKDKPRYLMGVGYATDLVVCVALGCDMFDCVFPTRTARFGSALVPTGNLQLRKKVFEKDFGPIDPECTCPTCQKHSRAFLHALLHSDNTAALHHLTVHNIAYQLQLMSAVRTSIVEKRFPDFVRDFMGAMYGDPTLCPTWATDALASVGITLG

[10] = target: T10, HeLa cell extract proteins (Homo sapiens, UniProt Q01650)
T10 construct: endogenous in cells; host or cells: HeLa cell extract
T10 sequence (Q01650 whole entry): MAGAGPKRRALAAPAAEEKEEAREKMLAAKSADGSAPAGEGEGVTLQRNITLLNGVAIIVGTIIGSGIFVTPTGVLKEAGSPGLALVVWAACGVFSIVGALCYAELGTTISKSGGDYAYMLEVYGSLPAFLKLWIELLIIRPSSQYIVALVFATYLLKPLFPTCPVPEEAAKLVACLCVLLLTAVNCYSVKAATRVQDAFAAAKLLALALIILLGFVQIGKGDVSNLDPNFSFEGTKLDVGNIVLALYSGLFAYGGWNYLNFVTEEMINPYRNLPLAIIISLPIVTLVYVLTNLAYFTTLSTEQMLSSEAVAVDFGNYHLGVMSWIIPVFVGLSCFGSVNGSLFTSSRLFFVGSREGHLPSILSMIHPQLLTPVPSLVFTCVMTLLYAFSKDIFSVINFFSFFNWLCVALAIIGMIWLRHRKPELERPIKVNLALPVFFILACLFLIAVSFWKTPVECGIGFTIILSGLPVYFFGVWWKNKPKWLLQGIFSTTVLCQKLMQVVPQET

T1 sequence (P68366 whole entry): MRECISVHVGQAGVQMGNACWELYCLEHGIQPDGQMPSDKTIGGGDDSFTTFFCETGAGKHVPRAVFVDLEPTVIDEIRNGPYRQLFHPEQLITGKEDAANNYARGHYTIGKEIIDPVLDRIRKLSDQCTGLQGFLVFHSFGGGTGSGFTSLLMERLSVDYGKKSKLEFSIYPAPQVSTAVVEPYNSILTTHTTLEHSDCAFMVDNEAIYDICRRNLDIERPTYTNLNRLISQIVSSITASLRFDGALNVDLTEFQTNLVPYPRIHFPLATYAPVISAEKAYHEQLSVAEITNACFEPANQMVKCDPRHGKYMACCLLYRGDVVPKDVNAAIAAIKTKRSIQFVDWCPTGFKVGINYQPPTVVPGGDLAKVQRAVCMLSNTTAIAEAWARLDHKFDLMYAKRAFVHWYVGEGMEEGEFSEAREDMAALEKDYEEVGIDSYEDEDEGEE

## Nc1nc2cccc(-c3ccccc3)c2n1Cc1ccc(Cl)c(Cl)c1 [compound 3]
[1]; captured protein TUBA4A, HeLa
  fold changes relative to vehicle control: 1.01
[2]; protein RPL12, HeLa
  fold changes relative to vehicle control: 1.08
[3]; protein MCM5, HeLa
  fold changes relative to vehicle control: 0.93
[4]; protein CCT3, HeLa
  fold changes relative to vehicle control: 1.06
[5]; protein SNRPB, HeLa
  fold changes relative to vehicle control: 1.04
[6]; captured protein MED12, HeLa
  fold changes relative to vehicle control: 1.14
[7]; protein TARS, HeLa
  fold changes relative to vehicle control: 0.98
[8]; protein DAP3, HeLa
  fold changes relative to vehicle control: 1
[9]; protein QTRT1, HeLa
  fold changes relative to vehicle control: 1.03
[10]; HeLa, protein SLC7A5
  fold changes relative to vehicle control: 1.06

## NCCOCCOCC(=O)Nc1nc2ncc(CNc3ccc(C(=O)NC(CCC(=O)O)C(=O)O)cc3)nc2c(=O)[nH]1 (stereo not shown) [compound 6]
[1]; HeLa, protein TUBA4A
  fold changes relative to vehicle control: 0.98
[2]; HeLa, captured protein RPL12
  fold changes relative to vehicle control: 1.12
[3]; HeLa, protein MCM5
  fold changes relative to vehicle control: 1.03
[4]; protein CCT3, HeLa
  fold changes relative to vehicle control: 1.16
[5]; HeLa, captured protein SNRPB
  fold changes relative to vehicle control: 1.16
[6]; HeLa, protein MED12
  fold changes relative to vehicle control: 1.21
[7]; HeLa, protein TARS
  fold changes relative to vehicle control: 1.12
[8]; HeLa, captured protein DAP3
  fold changes relative to vehicle control: 0.84
[9]; protein QTRT1, HeLa
  fold changes relative to vehicle control: 0.28
[10]; HeLa, captured protein SLC7A5
  fold changes relative to vehicle control: 0.76

## Nc1nc2[nH]cc(CCc3ccc(C(=O)N[C@@H](CCC(=O)O)C(=O)O)cc3)c2c(=O)[nH]1 [PTX, pemetrexed]
[1]
  fold changes relative to vehicle control: 0.83
[2]
  fold changes relative to vehicle control: 1.13
[3]
  fold changes relative to vehicle control: 1.12
[4]
  fold changes relative to vehicle control: 1
[5]
  fold changes relative to vehicle control: 1.12
[6]
  fold changes relative to vehicle control: 1
[7]
  fold changes relative to vehicle control: 1.02
[8]
  fold changes relative to vehicle control: 0.9
[9]
  fold changes relative to vehicle control: 0.84
[10]
  fold changes relative to vehicle control: 0.8

## Nc1nc2c(c(=O)[nH]1)N(C=O)C(CNc1ccc(C(=O)N[C@@H](CCC(=O)O)C(=O)O)cc1)CN2 (stereo partly shown) [LEU, leucovorin]
[1]; HeLa, protein TUBA4A
  fold changes relative to vehicle control: 0.9
[2]; HeLa, captured protein RPL12
  fold changes relative to vehicle control: 1.11
[3]; HeLa, protein MCM5
  fold changes relative to vehicle control: 0.94
[4]; protein CCT3, HeLa
  fold changes relative to vehicle control: 0.88
[5]; HeLa, captured protein SNRPB
  fold changes relative to vehicle control: 1.16
[6]; HeLa, protein MED12
  fold changes relative to vehicle control: 1.14
[7]; HeLa, protein TARS
  fold changes relative to vehicle control: 1.03
[8]; HeLa, captured protein DAP3
  fold changes relative to vehicle control: 0.98
[9]; protein QTRT1, HeLa
  fold changes relative to vehicle control: 0.96
[10]; HeLa, captured protein SLC7A5
  fold changes relative to vehicle control: 1.02

## CCCCCCOc1ccc(Cc2cnc(N)nc2N)cc1 [compound 1]
[1]; captured protein TUBA4A, HeLa
  fold changes relative to vehicle control: 0.95
[2]; protein RPL12, HeLa
  fold changes relative to vehicle control: 1.15
[3]; protein MCM5, HeLa
  fold changes relative to vehicle control: 1.04
[4]; protein CCT3, HeLa
  fold changes relative to vehicle control: 1.22
[5]; protein SNRPB, HeLa
  fold changes relative to vehicle control: 1.17
[6]; captured protein MED12, HeLa
  fold changes relative to vehicle control: 1.01
[7]; protein TARS, HeLa
  fold changes relative to vehicle control: 1.27
[8]; protein DAP3, HeLa
  fold changes relative to vehicle control: 1.27
[9]; protein QTRT1, HeLa
  fold changes relative to vehicle control: 0.51
[10]; HeLa, protein SLC7A5
  fold changes relative to vehicle control: 0.97

## NCCCNc1ccc(C(=O)NC(CCC(=O)O)C(=O)O)cc1 (stereo not shown) [compound 7]
[1]; HeLa, protein TUBA4A
  fold changes relative to vehicle control: 0.99
[2]; HeLa, captured protein RPL12
  fold changes relative to vehicle control: 0.97
[3]; HeLa, protein MCM5
  fold changes relative to vehicle control: 0.98
[4]; protein CCT3, HeLa
  fold changes relative to vehicle control: 1
[5]; HeLa, captured protein SNRPB
  fold changes relative to vehicle control: 1.16
[6]; HeLa, protein MED12
  fold changes relative to vehicle control: 1.21
[7]; HeLa, protein TARS
  fold changes relative to vehicle control: 0.97
[8]; HeLa, captured protein DAP3
  fold changes relative to vehicle control: 0.94
[9]; protein QTRT1, HeLa
  fold changes relative to vehicle control: 0.98
[10]; HeLa, captured protein SLC7A5
  fold changes relative to vehicle control: 0.97

## CCCCCCOc1cccc(Cc2cnc(N)nc2N)c1 [compound 2]
[1]; captured protein TUBA4A, HeLa
  fold changes relative to vehicle control: 0.88
[2]; protein RPL12, HeLa
  fold changes relative to vehicle control: 1.24
[3]; protein MCM5, HeLa
  fold changes relative to vehicle control: 1.41
[4]; protein CCT3, HeLa
  fold changes relative to vehicle control: 1.72
[5]; protein SNRPB, HeLa
  fold changes relative to vehicle control: 1.46
[6]; captured protein MED12, HeLa
  fold changes relative to vehicle control: 0.94
[7]; protein TARS, HeLa
  fold changes relative to vehicle control: 2.02
[8]; protein DAP3, HeLa
  fold changes relative to vehicle control: 1.16
[9]; protein QTRT1, HeLa
  fold changes relative to vehicle control: 1.05
[10]; HeLa, protein SLC7A5
  fold changes relative to vehicle control: 1.01
